What was measured:
[1] = Pharmacokinetic evaluation in rats (Test Example 1); format: in vivo; details: rat, nucleoside X28-1 in plasma, male SD rats, single iv 10.0 mg/kg
Description: Male SD rats, divided into intravenous (iv) and intragastric (po) groups, were fasted for 16 h before the experiment (the intravenous group was not fasted), with free access to water, and were fed together 2 h after administration. Compound X28-1 was intravenously injected at a dose of 10.0 mg/kg (n=3), and compounds X22, X51, and X102 (n=3) were intragastrically administered in equimolar amounts to X28-1, which were 15.5 mg/kg, 16.5 mg/kg, and 16.6 mg/kg, respectively, with a vehicle of 5% DMSO+5% enthanol+40% PEG400+50% saline. 0.2-0.3 mL of blood was collected via the jugular vein at 5 min (intravenous only), 0.25 h, 0.5 h, 1.0 h, 2.0 h, 4.0 h, 6.0 h, 8.0 h, and 24 h after administration. The blood samples were transferred into heparin sodium anticoagulation tubes, gently mixed uniformly, and centrifuged at 2000 g for 10 min. Plasma was isolated and frozen in a refrigerator at −70° C. for later detection. The concentration of nucleoside X28-1 in the plasma was determined by the LC-MS-MS method and pharmacokinetic parameters were calculated.

[2] = Pharmacokinetic evaluation in rats (Test Example 2); format: in vivo; details: rat, nucleoside X28-1 in plasma, male SD rats, single iv 5.0 mg/kg
Description: A total of 12 male SD rats, divided into intravenous (IV) and intragastric (PO) groups, were fasted for 12 h before the experiment (the intravenous group was not fasted), with free access to water, and were fed together 2 h after administration. Compound X28-1 was intragastrically administered at a dose of 10.0 mg/kg (n=3) and intravenously injected at a dose of 5.0 mg/kg (n=3), and both compound X52 and compound X55 were intragastrically administered at a dose of 18.0 mg/kg (n=3), with a vehicle of 5% DMSO+5% enthanol+40% PEG400+50% saline. For the intravenous group, 0.2-0.3 mL of blood was collected via the jugular vein at 5 min, 0.25 h, 0.5 h, 1.0 h, 2.0 h, 4.0 h, 8.0 h, and 24.0 h after administration, and for the intragastric group, at 5 min, 0.5 h, 1.0 h, 2.0 h, 4.0 h, 6.0 h, 8.0 h, and 24.0 h after administration. The blood samples were transferred into heparin sodium anticoagulation tubes, gently mixed uniformly, and centrifuged at 2000 g for 10 min. Plasma was isolated and frozen in a refrigerator at −70° C. for later detection. The concentration of nucleoside X28-1 in the plasma was determined by the LC-MS-MS method and pharmacokinetic parameters were calculated.

[3] = Pharmacokinetic evaluation in cynomolgus monkeys (Test Example 5); format: in vivo; details: cynomolgus monkey, nucleoside X28-1 in plasma, male cynomolgus monkeys, single iv 1.0 mg/kg
Description: Male cynomolgus monkeys were fasted for 12 h before intragastric administration, with free access to water, and were fed together 2 h after administration. X28-1 was intravenously administered at a dose of 1.0 mg/kg (n=3) and intragastrically administered at a dose of 5.0 mg/kg (n=3), and X219 hydrochloride was intragastrically administered at a dose of 10.7 mg/kg (n=3), with a vehicle for the compounds of 5% DMSO+5% enthanol+40% PEG400+50% saline. 0.5 mL of blood was collected via the forelimb vein at 5 min (intravenous only), 0.25 h, 0.5 h, 1.0 h, 2.0 h, 4.0 h, 6.0 h, 8.0 h, and 24.0 h after administration. The blood samples were transferred into heparin sodium anticoagulation tubes, gently shaken and mixed uniformly, put on ice, and immediately centrifuged (4° C., 2000 g, 10 min). After centrifugation, 100 μL of plasma was accurately pipetted and added to a plastic tube containing 400 μL of methanol solution with an internal standard, temporarily stored on dry ice after being vortexed, and then stored in an ultra-low temperature refrigerator for later detection. The concentration of nucleoside X28-1 in the plasma was determined by the LC-MS-MS method and pharmacokinetic parameters were calculated.

[4] = test system: influenza virus (IFV) A/California/07/2009 (H1N1) pdm09 strain; assay: In vitro activity against influenza virus (CPE, CCK8, MDCK cells); format: cell-based; details: 120 h, read-out: IFV (MDCK) EC50
[5] = test system: respiratory syncytial virus (RSV) A long strain; assay: In vitro activity against respiratory syncytial virus (CPE, CCK8, HEp-2 cells); format: cell-based; details: human respiratory syncytial virus, 120 h, MOI=0.02, 5 days
[6] = test system: SFTSV-Nluc; assay: microbe, parasite or virus in culture; format: cell-based, severe fever with thrombocytopenia syndrome virus (SFTSV); details: Severe fever with thrombocytopenia syndrome virus, Vero, 48 h
[7] = test system: wild-type SFSV virus (SFTSV-WT); format: in vivo; details: A129 mice infected with SFTSV-WT; X28-1 20 mpk intragastric once daily Day 0 to Day 6
[8] = test system: SFTSV-Nluc; design: species or system A129 mice; details: mouse
[9] = test system: respiratory syncytial virus (RSV A2); assay: In vivo efficacy for respiratory syncytial virus (RSV) in mice
[10] = in vitro; details: dog
[11] = Cytotoxicity in HEp-2 cells (CCK8); details: human
[12] = Stability test of compounds in solutions at different pH values

`O=c1ccn([C@@H]2O[C@](F)(CO)[C@@H](O)[C@H]2O)c(=O)[nH]1` [Compound X28-1, reference compound] showed an AUC(0-inf) [1] of 22100 ng·h/mL, an AUC(0-t) [1] of 20000 ng·h/mL and a Cmax [1] of 8080 ng/mL. It also gave a half-life [1] of 6.9 h, an MRT inf ([1]; read-out: MRT0-∞) of 8.33 h and an AUC(0-inf) [2] of 8690 ng·h/mL. For the same compound, the AUC(0-t) [2] was 8290 ng·h/mL, the Cmax [2] was 2620 ng/mL and the half-life [2] was 6.09 h. For the same compound, the MRT inf ([2]; read-out: MRT0-∞) was 6.89 h, the AUC(0-inf) [3] was 3720 ng·h/mL and the AUC(0-t) [3] was 3610 ng·h/mL. It also gave a half-life [3] of 5.38 h, an MRT inf ([3]; read-out: MRT0-∞) of 4.21 h and an EC50 [4] of under 0.37 µM. For the same compound, the EC50 [5] was 6.06 µM, the EC50 [6] was 0.8 µM and the inhibition at 10 µM ([6]; read-out: Inhibition rate (10 μM)) was 95.3%. The “change in the body weight” value [7] was “no significant change”, the survival rate [7] was 100% and the “in vivo fluorescence imaging, fluorescence intensity on ventral and dorsal side” value [8] was “negligible fluorescence intensity”. The “change in the body weight” value ([8]; in vivo, 20 mg/kg) was “no significant change”, the “in vitro imaging of spleen, kidneys, liver and intestine: fluorescence intensity compared with the SFTSV-Nluc vehicle group” value ([8]; in vivo, 20 mg/kg) was “significantly weaker” and the “spleen/body weight ratio and kidney/body weight ratio” value ([8]; in vivo, 20 mg/kg) was “consistent with those in the blank control group”. The survival rate ([8]; in vivo, 20 mg/kg) was 100%, the “viral titer and copy number in the spleen and kidney compared with the SFTSV-Nluc vehicle group” value ([8]; in vivo, 20 mg/kg) was “significantly reduced” and the “reduction in the pulmonary viral load compared with the vehicle group” value ([9]; 10 mpk intragastric once daily, Day 4) was “about 0.4 log10”. The “change in the body weight” value ([9]; RSV A2-infected BALB/C mice, X219 hydrochloride 20 mpk or X28-1 10 mpk intragastric once daily) was “began to show an increase in the body weight on Day 3”, the CC50 [10] was over 10 µM and the CC50 at 5 days [11] was over 10 µM. The “Content reduction (%)” value ([12]; buffered saline solution pH 4.0, 3 h) was 5.7%, the “Content reduction (%)” value ([12]; buffered saline solution pH 4.0, 6 h) was 12.2% and the “Content reduction (%)” value ([12]; buffered saline solution pH 4.0, 9 h) was 17.5%. The “Content reduction (%)” value ([12]; buffered saline solution pH 4.0, 12 h) was 22.2%, the “Content reduction (%)” value ([12]; buffered saline solution pH 4.0, 15 h) was 26.9% and the “Content reduction (%)” value ([12]; buffered saline solution pH 4.0, 18 h) was 30.3%. The “Content reduction (%)” value ([12]; buffered saline solution pH 4.0, 21 h) was 35.9%, the “Content reduction (%)” value ([12]; buffered saline solution pH 4.0, 24 h) was 40.1% and the “Content reduction (%)” value ([12]; buffered saline solution pH 6.8, 3 h) was 8.0%. The “Content reduction (%)” value ([12]; buffered saline solution pH 6.8, 6 h) was 15.3%, the “Content reduction (%)” value ([12]; buffered saline solution pH 6.8, 9 h) was 22.0% and the “Content reduction (%)” value ([12]; buffered saline solution pH 6.8, 12 h) was 28.3%. For the same compound, the “Content reduction (%)” value ([12]; buffered saline solution pH 6.8, 15 h) was 33.4%, the “Content reduction (%)” value ([12]; buffered saline solution pH 6.8, 18 h) was 38.0% and the “Content reduction (%)” value ([12]; buffered saline solution pH 6.8, 21 h) was 42.9%. The “Content reduction (%)” value ([12]; buffered saline solution pH 6.8, 24 h) was 46.9%.

— US20250282812A1, “ANTIVIRAL NUCLEOSIDE ANALOGUE, AND PHARMACEUTICAL COMPOSITION AND USE THEREOF” (SHANGHAI INSTITUTE OF MATERIA MEDICA , CHINESE ACADEMY OF …, priority 2022, published 2025)
